# Entries after “also recorded” stand apart in the source; their conditions may differ.
# Legend:
# LPA GPCRs = assay: Ca2+ mobilization assay, overall profile across LPA GPCRs; assay type: cell-based, human; conditions: across LPA1-4
# Method: After incubating the cells with Fura-2 AM, the cells were rinsed with Krebs buffer and changes in the intracellular Ca^2+ concentration were monitored by determining the ratio of emitted light intensities at 520 nm in response to excitation at 340 and 380 nm using FLEXstation II (Molecular Devices, Sunnyvale, Calif.). Each well was monitored for 80-120 sec. For testing agonist activity of the compounds, the test compounds were added automatically after 15 sec of baseline measurement. To determine antagonist properties, varying concentrations of the compounds were mixed with a constant concentration of LPA and responses were monitored. Each test was performed in quadruplicate. EC50, IC50, and Ki values were calculated by fitting a sigmoid function to data points with the nonlinear curve-fitting feature of KaleidaGraph (Synergy Software, Essex Junction, Vt.).
# Receptor activation using Ca^2+ mobilization assay. The assay for mobilization of intracellular Ca^2+ was performed as described. […] Using a FLEXStation (Molecular Devices, Sunnyvale, Calif.), changes in intracellular Ca^2+ concentration were monitored. Ligand-induced changes in fluorescence were monitored for 80-120 seconds. Ca^2+ transients were quantified automatically by calculating the difference between maximum and baseline ratio values for each sample. […] EC50, IC50, and Ki values were calculated as described. […]
# HCT 116 cells [1] = assay: HCT 116 wound-healing migration assay; assay type: cell-based; conditions: 20 μM; 0, 16, 24 and 48 hours
# Method: Effects of BrP-LPA analogs on HCT 116 migration. HCT 116 (2×10^5 per well) were plated in a six-well plate. When the cells were 100% confluent, the cells were treated with Mitomycin C (Sigma, MO, USA) 10 μg/ml for 2 hours, and then the monolayer was scratched using a 200 μl pipette tip. Medium and nonadherent cells were aspirated, the adherent cells were washed once, and new medium containing various concentrations of the pure diastereomers 1a and 1b, and the mixed diastereomers 1 (2 μM, 10 μM, 20 μM) was added (FIG. 13). A photograph was taken at the marked field (n=4) at 0, 16, 24 and 48 hours (FIG. 14). Wound closure was expressed as a percentage of the initial wound area, which was quantified using NIH ImageJ software.
# HCT 116 cells [2] = assay: Hepatic colon cancer tumor growth; assay type: in vivo, nude mice; conditions: 10 mg/kg i.p. twice per week
# Method: Four-week-old female athymic nude mice (Charles River Laboratories, Wilmington, Mass.) were used for colon cell implantation. All animals were maintained in a sterile environment. Cages, bedding, food, and water were all autoclaved. All animals were maintained on a daily 12-hr light/12-hr dark cycle.
# Nude mice were anesthetized by intraperitoneal injection of ketamine (80 mg/kg) and xylazine (10 mg/kg) according to the protocol approved by the University of Utah Institutional Animal Care and Use Committee (IACUC).
# After anesthesia induction, the aseptic surgical field was sterilized with iodine and alcohol swabs. HCT 116 cells (1×10^6) in 50 μl of the sECM hydrogel Extracel was directly injected into the livers of nude mice after they had been randomly assigned to one of the groups at the beginning of the experiment (8 mice/group).
# The control group received physiological saline i.p. injection twice per week starting at one week after the cell transplantation and ended at two weeks after the treatment. The treatment group received i.p. administration of the pure diastereomers 1b at 10 mg/kg twice per week with the same period of control group.
# Mice were observed daily. Animals were euthanized at 3 weeks post-injection in a carbon dioxide chamber. Body weights were measured, and the livers were excised. Liver weights and tumor diameters were subsequently determined. Colon tumors were measured using digital calipers. The volume of the cancer was then calculated according to the formula: Cancer Volume (CV)=d2×D/2, where d and D are the shortest and the longest diameters, respectively. After measurement, the tumor tissue was then harvested and placed in 10% formalin for paraffin embedding in preparation for the subsequent histological analyses.
SMILES,overall LPA GPCR ligand profile (LPA GPCRs),HCT 116 cell migration (HCT 116 cells [1]),hepatic tumor burden (liver weight) (HCT 116 cells [2]),new blood vessels in hepatic colon tumor (H&E) (HCT 116 cells [2]),hepatic tumor size / tumor volume in words (HCT 116 cells [2]; vs untreated control)
CCCCCCCCCCCCCCCC(=O)OC[C@@H](O)C[C@@H](Br)P(=O)(O)O [Compound 1a],pan-antagonist,–,–,–,–
CCCCCCCCCCCCCCCC(=O)OC[C@@H](O)C[C@H](Br)P(=O)(O)O [Compound 1b],–,greatest inhibition,marked reduction of hepatic tumor burden; also recorded: significantly reduced tumor burden,significantly reduced amounts of new blood vessels,significantly smaller; also recorded: significant decrease in tumor volume; also recorded: smaller than the untreated control

# Source: patent US8722649B2, “Alpha-chloro and alpha-bromo phosphonate analogs of lysophosphatidic acid and methods of making and using thereof” (University of Utah Research Foundation, priority 2007, dated 2014)
